Reference: paper PMC6458156, “Improved predictions of time-dependent drug-drug interactions by determination of cytosolic drug concentrations” (Scientific Reports, 2019)
Read-outs that look alike come from different tables or passages of the source.

Columns and labels:
[1] = Non-specific binding of drugs in human liver microsomes (fu,mic), rapid equilibrium dialysis; assay type: in vitro ADME; conditions: unbound drug fraction in the microsomal mixture, inhibitor 1 µM, 37 °C
[2] = tested on: OCT1; conditions: read-out: IC50 (OCT1); ref DIDB; cited from earlier work
[3] = tested on: P-gp; conditions: read-out: Ki (P-gp); ref DIDB; cited from earlier work
[4] = tested on: MATE2-K; conditions: read-out: IC50 (MATE2-K); ref DIDB; cited from earlier work
[5] = tested on: MATE1; conditions: read-out: IC50 (MATE1); ref DIDB; cited from earlier work
[6] = tested on: OATP1A2; conditions: read-out: IC50 (OATP1A2); ref DIDB; cited from earlier work
[7] = tested on: OCT2; conditions: read-out: IC50 (OCT2); ref DIDB; cited from earlier work
[8] = tested on: CYP3A4; set-up: method as in earlier work; conditions: ref DIDB; cited from earlier work
[9] = tested on: CYP2D6; set-up: method as in earlier work; conditions: in HLM; ref DIDB; cited from earlier work
[10] = Intracellular drug accumulation ratio (Kp) and intracellular bioavailability (Fic) in cryopreserved human hepatocytes; assay type: in vitro ADME; conditions: human, cryopreserved human hepatocytes in suspension; cellular drug accumulation ratio; 0.5 µM drug; no chloroquine; geometrical mean ± SD of triplicates
[11] = tested on: human hepatocytes; test: as above; assay type: in vitro ADME; conditions: intracellular bioavailability = fu,cell × Kp; human hepatocytes
[12] = Intracellular fraction of unbound drug (fu,cell), dialysis of human hepatocyte homogenate; assay type: in vitro ADME; conditions: homogenate of cryopreserved human hepatocytes, geometrical mean ± SD of triplicates
[13] = molecular target: T1, CYP3A (Homo sapiens, UniProt P08684); test: in vitro; conditions: microsomes, pH 7.4
T1 sequence (P08684 2-503): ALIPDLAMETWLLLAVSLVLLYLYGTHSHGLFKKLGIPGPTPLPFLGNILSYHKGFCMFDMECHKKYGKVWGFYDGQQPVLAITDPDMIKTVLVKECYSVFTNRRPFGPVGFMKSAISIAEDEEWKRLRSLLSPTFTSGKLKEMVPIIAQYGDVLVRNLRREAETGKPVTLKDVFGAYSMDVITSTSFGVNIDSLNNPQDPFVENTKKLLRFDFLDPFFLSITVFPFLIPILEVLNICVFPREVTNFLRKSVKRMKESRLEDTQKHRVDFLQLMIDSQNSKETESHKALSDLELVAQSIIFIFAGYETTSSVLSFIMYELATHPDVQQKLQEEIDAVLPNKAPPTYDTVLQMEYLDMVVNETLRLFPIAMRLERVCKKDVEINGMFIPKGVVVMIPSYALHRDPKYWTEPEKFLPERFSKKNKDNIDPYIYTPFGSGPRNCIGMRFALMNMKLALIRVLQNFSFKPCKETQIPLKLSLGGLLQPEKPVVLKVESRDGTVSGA

[14] = cited from earlier work; for ka: absorption rate constant, 35-40 (verapamil); for ka / Fa: ref 5,17 (crizotinib), 19-21 (erythromycin), 22-25 (imatinib), 20,32,33 (roxithromycin), 4,34 (telithromycin); for Cave,ss: average plasma concentration at steady-state; for Fa: fraction absorbed, 6,18 (diltiazem), 26-28 (nefazodone), 29,30 (nilotinib), 29,31 (pazopanib); for Cmax,ss: maximum plasma concentration at steady-state
[15] = molecular target: T1, CYP3A; conditions: probe drugs midazolam and simvastatin, in vivo; ref University of Washington Drug Interaction Database; cited from earlier work
[16] = tested on: human hepatocytes; test: Cytosolic drug accumulation ratio (Kpcyto) and cytosolic bioavailability (Fcyto) in human hepatocytes with chloroquine; assay type: in vitro ADME; conditions: for Kpcyto: cellular drug accumulation ratio in the presence of chloroquine (100 µM, 45 min), 0.5 µM drug; for Fcyto: cytosolic bioavailability = fu,cell × Kpcyto; for Fcyto / Fic/Fcyto: human hepatocytes; for Fic/Fcyto: ratio of intracellular to cytosolic bioavailability; for Kp compared with Kpcyto: absence vs presence of chloroquine, p ≤ 0.05 in Student’s t-test where called significant
[17] = molecular target: T1, CYP3A; test: in vitro
[18] = tested on: transporters; set-up: method as in earlier work; conditions: cells wrapped over several lines are given as printed fragments; ref DIDB; cited from earlier work
[19] = blood-to-plasma ratio; Predicted within/obtained from Simcyp; ref Simcyp (Simcyp Limited, UK); cited from earlier work
[20] = tested on: CYP3A4; conditions: midazolam; cited from earlier work
[21] = HLM 0.1 mg/ml, read-out: fu,mic at 0.1 mg/ml
[22] = HLM 0.5 mg/ml, read-out: fu,mic at 0.5 mg/ml
[23] = pH 7.4, KI, inactivation constant, HLM 0.5 mg/ml preincubation 0-30 min, midazolam 20 µM, mean ± SD of triplicates
[24] = pH 7.4, KI,u, calculated as fu,mic at 0.5 mg/ml × KI

Row | Structure (SMILES) | fraction unbound at 4 h, 1 µM [1, 21] | fraction unbound at 4 h, 1 µM [1, 22] | Kp at 0.5 µM [10] | Fic [11] | fraction unbound at 4 h [12] | IC50 at 5 min [13] | Ki at 5 min [13] | ka [14] | Fa [14] | class of CYP3A inhibitor by increase in AUC of the probe drug [15] | Kpcyto [16] | Fcyto [16] | KI (inactivation) [17, 23] | KI (inactivation) [17, 24] | other results
1 | CC[C@H]1OC(=O)[C@H](C)[C@@H](O[C@H]2C[C@@](C)(OC)[C@@H](O)[C@H](C)O2)[C@H](C)[C@@H](O[C@@H]2O[C@H](C)C[C@H](N(C)C)[C@H]2O)[C@](C)(O)C[C@@H](C)CN(C)[C@H](C)[C@@H](O)[C@]1(C)O [Azithromycin] | 0.766 | 0.765 | – | – | – | – | – | – | – | – | – | – | – | – | –
2 | CCN(CC)CCCC(C)Nc1ccnc2cc(Cl)ccc12 (stereo not shown) [Chloroquine] | – | – | – | – | – | – | – | – | – | – | – | – | – | – | IC50 [2]: 13 µM; Ki [3]: […]; IC50 [4]: 4 µM; IC50 [5]: 1.5 µM; IC50 [6]: […]; IC50 [7]: ~100 µM; IC50 [8]: 150 µM; IC50 [9]: ~50 µM
3 | C[C@@H](Oc1cc(-c2cnn(C3CCNCC3)c2)cnc1N)c1c(Cl)ccc(F)c1Cl [Crizotinib] | 0.505 | 0.118 | 75 ± 0.11 | 0.044 ± 0.005 | 0.0006 ± 0.0001 | > 100 µM | 97.4 µM | 0.817 h⁻¹ | 0.4 | medium (medium inhibitors causing a ≥2 but <5-fold increase) | 70 ± 0.4 | 0.041 ± 0.005 | 0.775 ± 0.13 µM | 0.091 µM | Cave,ss ([14]; 100 mg qd): 45 ng/mL; Cave,ss ([14]; 250 mg bid): 129 ng/mL; Cave,ss ([14]; 300 mg bid): 169 ng/mL; Cmax,ss ([14]; 100 mg qd): 86 ng/mL; Cmax,ss ([14]; 250 mg bid): 327 ng/mL; Cmax,ss ([14]; 300 mg bid): 420 ng/mL; Ki ([17]; microsomes, pH 7.4): 0.09 µM; Substrate of other transporters in vitro [18]: OATP1B1/3, 2B1
4 | COc1ccc([C@@H]2Sc3ccccc3N(CCN(C)C)C(=O)[C@@H]2OC(C)=O)cc1 [Diltiazem] | 0.792 | 0.708 | – | – | – | – | – | – | – | – | – | – | – | – | Cmax,ss ([14]; 60 mg tid): 70 ng/mL; Cmax,ss ([14]; 240 mg qd): 166 ng/mL
5 | CC[C@H]1OC(=O)[C@H](C)[C@@H](O[C@H]2C[C@@](C)(OC)[C@@H](O)[C@H](C)O2)[C@H](C)[C@@H](O[C@@H]2O[C@H](C)C[C@H](N(C)C)[C@H]2O)[C@](C)(O)C[C@@H](C)C(=O)[C@H](C)[C@@H](O)[C@]1(C)O [Erythromycin] | 0.64 | 0.586 | 1.5 ± 2.4 | 0.066 ± 0.104 | 0.0444 ± 0.0013 | – | – | 0.6 h⁻¹ | 0.65 | – | 1.2 ± 4.33 | 0.052 ± 0.192 | – | – | Cave,ss ([14]; 500 mg tid): 361 ng/mL; Cmax,ss ([14]; 500 mg tid): 821 ng/mL
6 | Cc1ccc(NC(=O)c2ccc(CN3CCN(C)CC3)cc2)cc1Nc1nccc(-c2cccnc2)n1 [Imatinib] | – | – | – | – | – | – | – | – | – | – | – | – | – | – | Cmax,ss ([14]; 400 mg qd): 2,596 ng/ml
7 | CCc1nn(CCCN2CCN(c3cccc(Cl)c3)CC2)c(=O)n1CCOc1ccccc1 [Nefazodone] | 0.187 | 0.18 | 8.1 ± 1.3 | 0.015 ± 0.002 | 0.0019 ± 0.0001 | 2.59 ± 0.22 µM | 0.242 µM | – | 1.00 | – | 11 ± 1.6 | 0.021 ± 0.003 | – | – | Cave,ss ([14]; 200 mg bid): 582 ng/mL; Cmax,ss ([14]; 200 mg bid): 1,400 ng/ml; Fic/Fcyto [16]: 0.74
8 | Cc1cn(-c2cc(NC(=O)c3ccc(C)c(Nc4nccc(-c5cccnc5)n4)c3)cc(C(F)(F)F)c2)cn1 [Nilotinib] | 0.195 | 0.121 | – | 0.022 ± 0.001 | 0.0002 | 1.31 ± 0.3 µM | 0.128 µM | – | 0.30 | medium (medium inhibitors causing a ≥2 but <5-fold increase) | 51 ± 9 | 0.008 ± 0.001 | 1.29 ± 0.23 µM | 0.156 µM | –
9 | Cc1ccc(Nc2nccc(N(C)c3ccc4c(C)n(C)nc4c3)n2)cc1S(N)(=O)=O [Pazopanib] | – | – | – | – | – | – | – | – | 0.80 | – | – | – | – | – | Cave,ss ([14]; 800 mg qd): 30,971 ng/ml; Substrate of other transporters in vitro [18]: OATP1B1/3, OCT1
10 | CC[C@H]1OC(=O)[C@H](C)[C@@H](O[C@H]2C[C@@](C)(OC)[C@@H](O)[C@H](C)O2)[C@H](C)[C@@H](O[C@@H]2O[C@H](C)C[C@H](N(C)C)[C@H]2O)[C@](C)(O)C[C@@H](C)/C(=N\OCOCCOC)[C@H](C)[C@@H](O)[C@]1(C)O [Roxithromycin] | 0.637 | 0.612 | 5.4 ± 0.3 | 0.13 ± 0.01 | 0.0241 ± 0.0004 | 82.4 ± 44.9 µM | 26.2 µM | 4.96 h⁻¹ | 0.86 | weak (weak inhibitors causing a ≥1.25 but <2-fold increase) | 3.3 ± 0.75 | 0.08 ± 0.02 | 31.4 ± 16.5 µM | 19.2 µM | Cave,ss ([14]; 300 mg qd): 5,413 ng/ml; Cmax,ss ([14]; 300 mg qd): 10,900 ng/ml; B/P [19]: 0.70; Kp compared with Kpcyto [16]: significantly larger; Fic/Fcyto [16]: 1.61
11 | CC[C@H]1OC(=O)[C@H](C)C(=O)[C@H](C)[C@@H](O[C@@H]2O[C@H](C)C[C@H](N(C)C)[C@H]2O)[C@](C)(OC)C[C@@H](C)C(=O)[C@H](C)[C@H]2N(CCCCn3cnc(-c4cccnc4)c3)C(=O)O[C@]12C [Telithromycin] | 0.962 | 0.657 | 6.6 ± 0.6 | 0.25 ± 0.03 | 0.0371 ± 0.0016 | 14.1 ± 3.5 µM | 6.77 µM | 0.95 h⁻¹ | 0.92 | strong (strong inhibitors of CYP3A, causing a ≥5-fold increase in the area under the concentration-time curve (AUC) of the probe drug) | 7.24 ± 0.8 | 0.27 ± 0.03 | 1.49 ± 0.19 µM | 0.979 µM | Cave,ss ([14]; 800 mg qd): 425 ng/mL; Cmax,ss ([14]; 800 mg qd): 1,840 ng/ml; Kp compared with Kpcyto [16]: comparable Kp and Kpcyto; Fic/Fcyto [16]: 0.92
12 | Cc1ncc2n1-c1ccc(Cl)cc1C(c1ccccc1F)=NC2 [midazolam, Midazolam] | – | – | – | – | – | – | – | – | – | – | – | – | – | – | fraction metabolized by CYP3A4 (fm) [20]: 0.94; fraction of drug escaping CYP3A4-mediated gut metabolism (FG) [20]: 0.51
